Assays:
[1] = test system: Shigella flexneri; test: Antibacterial activity against Shigella flexneri assessed as concentration required to obtain a zone of inhibition of 5 mm after 18 to 24 hr by disk diffusion method; format: functional
[2] = test system: Pseudomonas aeruginosa; test: Antibacterial activity against Pseudomonas aeruginosa assessed as concentration required to obtain a zone of inhibition of 20 mm after 18 to 24 hr by disk diffusion method; format: functional
[3] = test system: Proteus mirabilis; test: Antibacterial activity against Proteus mirabilis assessed as concentration required to obtain a zone of inhibition of 5 mm after 18 to 24 hr by disc diffusion method; format: functional
[4] = test system: Staphylococcus aureus; test: Antibacterial activity against methicillin-resistant Staphylococcus aureus assessed as zone of inhibition at 5 to 40 ug/ml after 18 to 24 hr by disk diffusion method relative to gatifloxacin; format: functional
[5] = test system: Shigella flexneri; test: Antibacterial activity against Shigella flexneri assessed as zone of inhibition at 5 to 40 ug/ml after 18 to 24 hr by disk diffusion method relative to gatifloxacin; format: functional
[6] = test system: Fusarium solani; test: Antifungal activity against Fusarium solani assessed as concentration required to obtain a zone of inhibition of 20 mm after 7 days by disk diffusion method; format: functional
[7] = test system: Klebsiella pneumoniae; test: Antibacterial activity against Klebsiella pneumoniae assessed as concentration required to obtain a zone of inhibition of 10 mm after 18 to 24 hr by disk diffusion method; format: functional
[8] = test system: Candida albicans; test: Antifungal activity against Candida albicans assessed as concentration required to obtain a zone of inhibition of 20 mm after 7 days by disk diffusion method; format: functional
[9] = test system: Shigella sp.; test: Antibacterial activity against Shigella typhi assessed as concentration required to obtain a zone of inhibition of 5 mm after 18 to 24 hr by disc diffusion method; format: functional
[10] = test system: Bacillus subtilis; test: Antibacterial activity against Bacillus subtilis assessed as zone of inhibition at 5 to 40 ug/ml after 18 to 24 hr by disk diffusion method relative to gatifloxacin; format: functional
[11] = test system: Citrobacter; test: Antibacterial activity against Citrobacter assessed as concentration required to obtain a zone of inhibition of 5 mm after 18 to 24 hr by disk diffusion method; format: functional
[12] = Antibacterial activity against Hofmanni bacterium assessed as concentration required to obtain a zone of inhibition of 20 mm after 18 to 24 hr by disc diffusion method
[13] = test system: Bacillus subtilis; test: Antibacterial activity against Bacillus subtilis assessed as concentration required to obtain a zone of inhibition of 5 mm after 18 to 24 hr by disk diffusion method; format: functional
[14] = test system: Fusarium solani; test: Antifungal activity against Fusarium solani assessed as zone of inhibition at 5 to 40 ug/ml after 7 days by disk diffusion method relative to gatifloxacin; format: functional
[15] = test system: Fusarium solani; test: Antifungal activity against Fusarium solani assessed as concentration required to obtain a zone of inhibition of 40 mm after 7 days by disk diffusion method; format: functional
[16] = test system: Escherichia coli; test: Antibacterial activity against Escherichia coli assessed as concentration required to obtain a zone of inhibition of 20 mm after 18 to 24 hr by disk diffusion method; format: functional
[17] = test system: Saccharomyces cerevisiae; test: Antifungal activity against Saccharomyces cerevisiae assessed as zone of inhibition at 5 to 40 ug/ml after 7 days by disk diffusion method relative to gatifloxacin; format: functional
[18] = Antibacterial activity against Hofmanni bacterium assessed as zone of inhibition after 18 to 24 hr by disc diffusion method relative to gatifloxacin
[19] = test system: Trichophyton rubrum; test: Antifungal activity against Trichophyton rubrum assessed as concentration required to obtain a zone of inhibition of 40 mm after 7 days by disk diffusion method; format: functional
[20] = test system: Pseudomonas aeruginosa; test: Antibacterial activity against Pseudomonas aeruginosa assessed as concentration required to obtain a zone of inhibition of 10 mm after 18 to 24 hr by disk diffusion method; format: functional
[21] = test system: Proteus mirabilis; test: Antibacterial activity against Proteus mirabilis assessed as concentration required to obtain a zone of inhibition of 10 mm after 18 to 24 hr by disc diffusion method; format: functional
[22] = test system: Bacillus subtilis; test: Antibacterial activity against Bacillus subtilis assessed as concentration required to obtain a zone of inhibition of 10 mm after 18 to 24 hr by disk diffusion method; format: functional
[23] = test system: Citrobacter; test: Antibacterial activity against Citrobacter assessed as concentration required to obtain a zone of inhibition of 20 mm after 18 to 24 hr by disk diffusion method; format: functional
[24] = test system: Trichophyton rubrum; test: Antifungal activity against Trichophyton rubrum assessed as zone of inhibition at 5 to 40 ug/ml after 7 days by disk diffusion method relative to gatifloxacin; format: functional
[25] = test system: Trichophyton rubrum; test: Antifungal activity against Trichophyton rubrum assessed as concentration required to obtain a zone of inhibition of 20 mm after 7 days by disk diffusion method; format: functional
[26] = test system: Klebsiella pneumoniae; test: Antibacterial activity against Klebsiella pneumoniae assessed as concentration required to obtain a zone of inhibition of 20 mm after 18 to 24 hr by disk diffusion method; format: functional
[27] = test system: Candida albicans; test: Antifungal activity against Candida albicans assessed as zone of inhibition at 5 to 40 ug/ml after 7 days by disk diffusion method relative to gatifloxacin; format: functional
[28] = test system: Escherichia coli; test: Antibacterial activity against Escherichia coli assessed as zone of inhibition at 5 to 40 ug/ml after 18 to 24 hr by disk diffusion method relative to gatifloxacin; format: functional
[29] = test system: Citrobacter; test: Antibacterial activity against Citrobacter assessed as zone of inhibition at 5 to 40 ug/ml after 18 to 24 hr by disk diffusion method relative to gatifloxacin; format: functional
[30] = test system: Pseudomonas aeruginosa; test: Antibacterial activity against Pseudomonas aeruginosa assessed as zone of inhibition at 5 to 40 ug/ml after 18 to 24 hr by disk diffusion method relative to gatifloxacin; format: functional
[31] = test system: Escherichia coli; test: Antibacterial activity against Escherichia coli assessed as concentration required to obtain a zone of inhibition of 5 mm after 18 to 24 hr by disk diffusion method; format: functional
[32] = test system: Candida albicans; test: Antifungal activity against Candida albicans assessed as concentration required to obtain a zone of inhibition of 40 mm after 7 days by disk diffusion method; format: functional
[33] = test system: Bacillus subtilis; test: Antibacterial activity against Bacillus subtilis assessed as concentration required to obtain a zone of inhibition of 20 mm after 18 to 24 hr by disk diffusion method; format: functional
[34] = test system: Shigella sp.; test: Antibacterial activity against Shigella typhi assessed as zone of inhibition after 18 to 24 hr by disc diffusion method relative to gatifloxacin; format: functional
[35] = test system: Pseudomonas aeruginosa; test: Antibacterial activity against Pseudomonas aeruginosa assessed as concentration required to obtain a zone of inhibition of 5 mm after 18 to 24 hr by disk diffusion method; format: functional
[36] = test system: Escherichia coli; test: Antibacterial activity against Escherichia coli assessed as concentration required to obtain a zone of inhibition of 10 mm after 18 to 24 hr by disk diffusion method; format: functional
[37] = test system: Klebsiella pneumoniae; test: Antibacterial activity against Klebsiella pneumoniae assessed as zone of inhibition at 5 to 40 ug/ml after 18 to 24 hr by disk diffusion method relative to gatifloxacin; format: functional
[38] = test system: Klebsiella pneumoniae; test: Antibacterial activity against Klebsiella pneumoniae assessed as concentration required to obtain a zone of inhibition of 5 mm after 18 to 24 hr by disk diffusion method; format: functional
[39] = test system: Shigella flexneri; test: Antibacterial activity against Shigella flexneri assessed as concentration required to obtain a zone of inhibition of 20 mm after 18 to 24 hr by disk diffusion method; format: functional
[40] = test system: Citrobacter; test: Antibacterial activity against Citrobacter assessed as concentration required to obtain a zone of inhibition of 10 mm after 18 to 24 hr by disk diffusion method; format: functional
[41] = Antibacterial activity against Hofmanni bacterium assessed as concentration required to obtain a zone of inhibition of 10 mm after 18 to 24 hr by disc diffusion method
[42] = test system: Proteus mirabilis; test: Antibacterial activity against Proteus mirabilis assessed as concentration required to obtain a zone of inhibition of 20 mm after 18 to 24 hr by disc diffusion method; format: functional
[43] = test system: Proteus mirabilis; test: Antibacterial activity against Proteus mirabilis assessed as zone of inhibition at 5 to 40 ug/ml after 18 to 24 hr by disc diffusion method relative to gatifloxacin; format: functional
[44] = Antibacterial activity against Hofmanni bacterium assessed as concentration required to obtain a zone of inhibition of 5 mm after 18 to 24 hr by disc diffusion method
[45] = test system: Shigella flexneri; test: Antibacterial activity against Shigella flexneri assessed as concentration required to obtain a zone of inhibition of 10 mm after 18 to 24 hr by disk diffusion method; format: functional

SMILES: C[C@@H]1CN(c2c(F)c(N)c3c(=O)c(C(=O)O)cn(C4CC4)c3c2F)C[C@H](C)N1 [SPARFLOXACIN]
- Activity [1]: 9 µg/mL
- Activity [2]: 15 µg/mL
- Activity [3]: 10 µg/mL
- inhibition zone (IZ) [4]: 77.2%
- inhibition zone (IZ) [5]: 75.1%
- Activity [6]: 10 µg/mL
- Activity [7]: 13 µg/mL
- Activity [8]: 13 µg/mL
- Activity [9]: 9 µg/mL
- inhibition zone (IZ) [10]: 94.6%
- Activity [11]: 8 µg/mL
- Activity [12]: 14 µg/mL
- Activity [13]: 12 µg/mL
- inhibition zone (IZ) [14]: 70%
- Activity [15]: 11 µg/mL
- Activity [16]: 14 µg/mL
- inhibition zone (IZ) [17]: 0%
- inhibition zone (IZ) [18]: 110%
- Activity [19]: 24 µg/mL
- Activity [20]: 13 µg/mL
- Activity [21]: 12 µg/mL
- Activity [22]: 13 µg/mL
- Activity [23]: 10 µg/mL
- inhibition zone (IZ) [24]: 169%
- Activity [25]: 20 µg/mL
- Activity [26]: 16 µg/mL
- inhibition zone (IZ) [27]: 176%
- inhibition zone (IZ) [28]: 98.01%
- inhibition zone (IZ) [29]: 42.73%
- inhibition zone (IZ) [30]: 117.6%
- Activity [31]: 9 µg/mL
- Activity [32]: 17 µg/mL
- Activity [33]: 15 µg/mL
- inhibition zone (IZ) [34]: 87%
- Activity [35]: 11 µg/mL
- Activity [36]: 11 µg/mL
- inhibition zone (IZ) [37]: 96.1%
- Activity [38]: 10 µg/mL
- Activity [39]: 13 µg/mL
- Activity [40]: 9 µg/mL
- Activity [41]: 13 µg/mL
- Activity [42]: 15 µg/mL
- inhibition zone (IZ) [43]: 90%
- Activity [44]: 11 µg/mL
- Activity [45]: 11 µg/mL

Source: ChEMBL document CHEMBL3044830, “Synthesis, characterization, antibacterial, antifungal, and immunomodulating activities of gatifloxacin derivatives” (Med Chem Res, 2010)
